Assay results published in ChEMBL document CHEMBL1201862, “PubChem BioAssay data set” (2004).
Active and inactive are the calls of the source.

Tests used:
[1] = HEK-293T viability loss, compound-treated – cell-based, uHTS hits, cytotoxicity control for B/T-cell NF-kB inhibitor project, dose response (AID 489019); assay type: functional;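 also: IC50 reflects cytotoxicity as loss of cell viability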
Jurkat = experiment: blockers of NF-kB activation in T cells – Jurkat, luciferase reporter, luminescence, B- and T-cell, dose response (AID 489004); assay type: functional, cell-based; conditions: Homo sapiens;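 also: NF-kB luciferase reporter Jurkat cells stimulated with PMA plus ionomycin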
[2] = NIH3T3 cell viability loss – ATP luminescence, mouse fibroblasts, counter-screen, dose response (AID 2010); assay type: functional, cell-based; conditions: NIH3T3;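 also: cells exposed to compound for about 90 hours before reading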
[3] = target: T1, Polyadenylate-binding protein 1 (Homo sapiens, UniProt P11940); experiment: MLLE binding blockers, Cy5 peptide tracer – biochemical, fluorescence polarization, Cy5-PAM2 peptide, secondary, miRNA deadenylation inhibitor project, dose response (AID 602260); assay type: functional; conditions: read-out: IC50_Mean
Cytochrome P450 2D6 = Cytochrome P450 2D6 (Homo sapiens, UniProt P10635);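 also: CYP2D6 member of a cytochrome P450 panel assay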
[4] = target: T1, Polyadenylate-binding protein 1; experiment: MLLE domain peptide-binding blockers, IC50 – biochemical, fluorescence polarization, FITC-PAM2 peptide, dose response (AID 602259); assay type: functional; conditions: read-out: IC50_Mean
Beta-galactosidase = Beta-galactosidase (Escherichia coli, UniProt Q8VNN2); experiment: detection-enzyme interference by beta-gal modulators – biochemical, E. coli enzyme, set 3, artefact control for CCR6 antagonist project, dose response (AID 504712); assay type: functional
[5] = target: Glucose-6-phosphate 1-dehydrogenase (Homo sapiens, UniProt P11413); experiment: inhibition of Homo sapiens G6PD, dose series – biochemical, fluorescence, selectivity assay for P. falciparum G6PD inhibitor project, dose response (AID 504792); assay type: functional
Cytochrome P450 3A4 [6] = target: T2, Cytochrome P450 3A4 (Homo sapiens, UniProt P08684);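 also: CYP3A4 tested as one member of a cytochrome P450 panel screen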
Genome polyprotein = Genome polyprotein (dengue virus type 2, UniProt P29990); experiment: flavivirus cap methylation enzyme inhibition – biochemical, confirmation dose response, primary screen (AID 588689); assay type: functional
[7] = Trypanosoma cruzi growth suppression in host cells – NIH3T3 host cells, beta-gal luminescence, confirmation (AID 2044); assay type: functional, cell-based;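 also: intracellular parasites grown in NIH/3T3 mouse fibroblasts as host cells; luminescent beta-galactosidase reporter signal from transgenic T. cruzi replicating inside host cells; inhibitors lower the luminescence signal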
[8] = target: Sphingosine 1-phosphate receptor 1 (Homo sapiens, UniProt P21453); experiment: Fluorescence-based counterscreen assay for S1P4 agonists: Cell-based dose response high throughput screening assay to identify agonists of the Sphingosine 1-Phosphate Receptor 1 (S1P1). [Related pubchem assays (depositor defined):AID1509, AID1523, AID1801, AID463107, AID463118, AID463119, AID463122, AID463123, AID463129, AID463225, AID504400, AID504460]; assay type: functional
[9] = target: Sphingosine 1-phosphate receptor 2 (Homo sapiens, UniProt O95136); experiment: Dose Response Cell Based Assay for Agonists of the S1P2 Receptor. [Related pubchem assays: 729, 736, 843 ]; assay type: functional
[10] = target: Sphingosine 1-phosphate receptor 4 (Homo sapiens, UniProt O95977); experiment: Fluorescence dose response cell-based high throughput screening assay for agonists of the Sphingosine 1-Phosphate Receptor 4 (S1P4). [Related pubchem assays: 1509 (Primary screen.), 1523 (Confirmation screen in triplicates.)]; assay type: functional
[11] = MIN6 cell viability loss – mouse insulinoma, cytotoxicity control, dose response (AID 2122); assay type: functional;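 also: confirmatory high-throughput counterscreen run to flag cytotoxic compounds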
[12] = decrease of insulin promoter-GFP reporter – imaging, high-content screening, mouse beta cells (AID 1628); assay type: functional; conditions: MIN6
[13] = target: Induced myeloid leukemia cell differentiation protein Mcl-1 (Homo sapiens, UniProt Q07820); assay type: functional
Paired box protein Pax-8 = Paired box protein Pax-8 (Homo sapiens, UniProt Q06710); experiment: PAX8 transcriptional activity inhibition in RMG-I – RMG-I cells, luciferase, cherry-pick, dose response (AID 687027); assay type: functional, cell-based;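 also: luciferase reporter driven by Pax8 target thyroperoxidase promoter measured by SteadyGlo luminescence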
[14] = Counterscreen for AddAB inhibitors: absorbance-based bacterial cell-based high throughput dose response assay for inhibitors of bacterial viability. [Related pubchem assays (depositor defined):AID435030, AID449728, AID449731, AID488942, AID488955, AID488956]; assay type: functional
Exodeoxyribonuclease V = Exodeoxyribonuclease V (Escherichia coli (strain K12), UniProt P04993+P07648+P08394); experiment: RecBCD inhibition via phage-restricted bacterial growth – absorbance, V66 E. coli, mutant T4 phage, counter-screen for AddAB inhibitor project, dose response (AID 492957); assay type: functional, cell-based, Escherichia coli str. K-12 substr. MG1655
Cytochrome P450 2C19 = Cytochrome P450 2C19 (Homo sapiens, UniProt P33261); experiment: Cytochrome panel assay with activity outcomes. Panel member name: p450-cyp2c19 Compounds with AC50 equal or less than 10 uM are considered active; assay type: functional; conditions: read-out: AC50
Cytochrome P450 3A4 [15] = target: T2, Cytochrome P450 3A4; remark: listed apart in the source
Cytochrome P450 2C9 = Cytochrome P450 2C9 (Homo sapiens, UniProt P11712)
[16] = target: T3, Dual specificity protein phosphatase 3 (Homo sapiens, UniProt P51452); experiment: SAR VHR1 absorbance Assay for In Vitro dose response studies. [Related pubchem assays (depositor defined):AID1654, AID1661, AID1878, AID1992, AID2004]
[17] = target: T3, Dual specificity protein phosphatase 3; experiment: SAR VHR1 Fluorescent Assay for In Vitro dose response studies. [Related pubchem assays (depositor defined):AID1654, AID1661, AID1878, AID1992, AID2004, AID2070, AID2085]; assay type: functional
[18] = target: T4, Tyrosine-protein phosphatase non-receptor type 7 (Homo sapiens, UniProt P35236); experiment: redox-active compounds inhibiting HePTP phosphatase – biochemical, fluorescence, mechanism study (AID 2068); assay type: functional
T4 sequence (P35236 whole entry): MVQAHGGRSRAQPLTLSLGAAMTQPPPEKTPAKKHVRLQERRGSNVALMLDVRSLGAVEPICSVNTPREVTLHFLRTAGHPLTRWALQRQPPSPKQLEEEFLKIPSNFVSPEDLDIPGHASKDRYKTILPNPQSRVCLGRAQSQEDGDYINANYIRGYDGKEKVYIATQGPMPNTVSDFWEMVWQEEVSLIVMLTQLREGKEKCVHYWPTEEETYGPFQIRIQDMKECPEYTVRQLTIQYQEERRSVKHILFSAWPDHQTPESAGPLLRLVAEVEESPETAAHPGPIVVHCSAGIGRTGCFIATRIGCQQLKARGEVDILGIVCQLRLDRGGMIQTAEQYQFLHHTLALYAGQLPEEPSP

[19] = target: Dual specificity protein phosphatase 6 (Rattus norvegicus, UniProt Q64346); assay type: functional;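 also: confirmatory in vitro dose-response testing of MKP-3 inhibition; recombinant His-tagged MKP-3 made in E. coli BL21 with OMFP substrate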
[20] = target: G-protein coupled receptor 55 (Homo sapiens, UniProt Q9Y2T6); experiment: blockers of GPR55 signalling, imaged – imaging, image-based, counter-screen for GPR35 antagonist project, SAR follow-up (AID 2397); assay type: functional
[21] = target: T5, Intestinal-type alkaline phosphatase (Homo sapiens, UniProt P09923); experiment: activation of human intestinal alkaline phosphatase – biochemical, luminescent, uHTS hits, set 2, dose response (AID 488817); assay type: functional;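 also: potency of activators that raise enzyme activity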
[22] = target: T6, Alkaline phosphatase, tissue-nonspecific isozyme (Homo sapiens, UniProt P05186); experiment: activation of tissue-nonspecific alkaline phosphatase – biochemical, TNAP isozyme, human IAP uHTS hits, selectivity assay for human IAP activator project, dose response (AID 488886); assay type: functional;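 also: potency of compounds raising TNAP activity as a selectivity check on IAP activators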
T6 sequence (P05186 whole entry): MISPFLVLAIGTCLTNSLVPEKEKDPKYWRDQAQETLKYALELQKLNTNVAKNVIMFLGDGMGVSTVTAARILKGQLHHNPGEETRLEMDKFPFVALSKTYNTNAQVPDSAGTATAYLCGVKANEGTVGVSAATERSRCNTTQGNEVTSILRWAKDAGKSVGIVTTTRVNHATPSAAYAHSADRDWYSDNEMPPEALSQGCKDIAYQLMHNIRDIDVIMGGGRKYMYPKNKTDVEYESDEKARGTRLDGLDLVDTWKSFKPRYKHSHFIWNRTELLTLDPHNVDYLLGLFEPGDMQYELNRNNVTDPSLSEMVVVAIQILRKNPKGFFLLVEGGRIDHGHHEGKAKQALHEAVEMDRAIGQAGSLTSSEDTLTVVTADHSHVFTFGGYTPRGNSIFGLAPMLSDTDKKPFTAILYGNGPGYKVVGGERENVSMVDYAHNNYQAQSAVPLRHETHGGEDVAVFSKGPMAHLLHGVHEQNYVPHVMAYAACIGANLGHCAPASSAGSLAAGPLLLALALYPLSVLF

[23] = target: T5, Intestinal-type alkaline phosphatase; experiment: human intestinal alkaline phosphatase activators, dose response, biochemical, luminescence, uHTS hits (AID 463120); assay type: functional
[24] = target: T7, Intestinal-type alkaline phosphatase (Mus musculus, UniProt P24822); experiment: PubChem AID 488875; assay type: functional
Fibrinogen beta chain [25] = target: T8, Fibrinogen beta chain (Homo sapiens, UniProt P02675); experiment: Fluorescence polarization-based biochemical high throughput dose response assay to identify inhibitors that disrupt the binding of a cyclic peptide (Tn7) to the fibrin proteolytic product D-Dimer and fragment E complex [DD(E )].
[26] = target: Cyclin-dependent kinase 5/CDK5 activator 1 (Homo sapiens, UniProt Q00535); experiment: blockade of human CDK5 activity – biochemical, cherry-picked samples, set 2, dose response (AID 504545)
Fibrinogen beta chain [27] = target: T8, Fibrinogen beta chain; experiment: Fluorescence polarization-based biochemical high throughput dose response assay to identify inhibitors that disrupt the binding of a cyclic peptide (Tn6) to the fibrin proteolytic product D-Dimer and fragment E complex [DD(E )].
[28] = target: T6, Alkaline phosphatase, tissue-nonspecific isozyme; experiment: activation of tissue-nonspecific alkaline phosphatase – biochemical, TNAP isozyme, mouse IAP uHTS hits, selectivity assay for mouse IAP activator project, dose response (AID 488880); assay type: functional
[29] = target: T5, Intestinal-type alkaline phosphatase; experiment: activation of human intestinal alkaline phosphatase – biochemical, dose response (AID 488873); assay type: functional
[30] = target: T9, Endoribonuclease toxin MazF (Escherichia coli K-12, UniProt P0AE70); experiment: activation of MazEF endoribonuclease cleavage – biochemical, fluorescence, single-stranded RNA substrate, uHTS hits, dose response (AID 588481); assay type: functional
T9 sequence (P0AE70 whole entry): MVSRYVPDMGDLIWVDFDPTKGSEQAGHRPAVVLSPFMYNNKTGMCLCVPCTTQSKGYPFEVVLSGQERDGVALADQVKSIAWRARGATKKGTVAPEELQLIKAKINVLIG

[31] = target: T7, Intestinal-type alkaline phosphatase; experiment: mouse intestinal alkaline phosphatase activators, dose response, biochemical, luminescence, uHTS hits (AID 488783); assay type: functional
Major prion protein = Major prion protein (Homo sapiens, UniProt P04156); assay type: functional, cell-based
Large T antigen = Large T antigen (Simian virus 40, UniProt P03070); assay type: functional, Betapolyomavirus macacae;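 also: Confirmatory-stage PubChem screen for compounds that inhibit SV40 T antigen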
[32] = target: T9, Endoribonuclease toxin MazF; experiment: substrate-only fluorescence increase artefacts – biochemical, single-stranded RNase substrate, counter-screen for MazEF activator project, dose response (AID 588502); assay type: functional

T5 sequence (P09923 whole entry): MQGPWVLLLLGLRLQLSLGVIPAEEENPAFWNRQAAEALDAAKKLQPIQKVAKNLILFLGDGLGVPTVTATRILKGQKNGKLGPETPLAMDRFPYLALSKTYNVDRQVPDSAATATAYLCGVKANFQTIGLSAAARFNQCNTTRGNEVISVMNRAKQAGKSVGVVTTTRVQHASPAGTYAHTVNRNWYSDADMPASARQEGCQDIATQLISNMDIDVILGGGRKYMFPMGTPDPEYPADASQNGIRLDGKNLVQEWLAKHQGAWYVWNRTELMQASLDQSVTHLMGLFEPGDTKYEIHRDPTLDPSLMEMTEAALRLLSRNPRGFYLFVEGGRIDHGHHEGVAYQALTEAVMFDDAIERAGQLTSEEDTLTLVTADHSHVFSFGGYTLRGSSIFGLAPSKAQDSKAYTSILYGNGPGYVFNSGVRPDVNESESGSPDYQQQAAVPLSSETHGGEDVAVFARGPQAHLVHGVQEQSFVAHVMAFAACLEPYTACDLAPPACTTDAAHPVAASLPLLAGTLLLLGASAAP
Sequence of Genome polyprotein (P29990 2492-3391 limits assumed): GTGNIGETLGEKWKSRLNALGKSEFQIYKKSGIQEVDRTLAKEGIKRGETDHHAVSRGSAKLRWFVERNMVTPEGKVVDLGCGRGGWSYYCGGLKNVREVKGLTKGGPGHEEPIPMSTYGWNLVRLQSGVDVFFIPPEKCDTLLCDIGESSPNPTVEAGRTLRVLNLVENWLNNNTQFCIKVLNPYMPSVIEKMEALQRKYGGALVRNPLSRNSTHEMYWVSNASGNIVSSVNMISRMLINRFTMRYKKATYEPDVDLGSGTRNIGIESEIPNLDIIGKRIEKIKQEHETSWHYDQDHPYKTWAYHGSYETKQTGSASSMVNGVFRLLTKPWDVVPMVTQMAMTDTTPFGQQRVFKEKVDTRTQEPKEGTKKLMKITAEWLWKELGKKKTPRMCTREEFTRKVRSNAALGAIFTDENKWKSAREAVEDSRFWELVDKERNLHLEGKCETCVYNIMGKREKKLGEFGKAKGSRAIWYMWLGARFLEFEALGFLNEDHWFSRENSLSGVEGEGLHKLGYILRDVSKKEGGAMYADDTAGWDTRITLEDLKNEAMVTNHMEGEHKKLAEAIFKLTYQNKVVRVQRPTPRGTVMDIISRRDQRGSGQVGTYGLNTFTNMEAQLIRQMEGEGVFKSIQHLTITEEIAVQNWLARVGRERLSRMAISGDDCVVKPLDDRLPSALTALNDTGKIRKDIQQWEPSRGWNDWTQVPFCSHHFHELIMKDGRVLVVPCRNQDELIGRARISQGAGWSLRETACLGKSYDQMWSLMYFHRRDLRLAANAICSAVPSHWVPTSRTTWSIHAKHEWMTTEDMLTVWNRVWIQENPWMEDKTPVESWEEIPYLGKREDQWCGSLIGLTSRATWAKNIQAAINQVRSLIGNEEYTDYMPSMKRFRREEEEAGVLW
T1 sequence (P11940 whole entry): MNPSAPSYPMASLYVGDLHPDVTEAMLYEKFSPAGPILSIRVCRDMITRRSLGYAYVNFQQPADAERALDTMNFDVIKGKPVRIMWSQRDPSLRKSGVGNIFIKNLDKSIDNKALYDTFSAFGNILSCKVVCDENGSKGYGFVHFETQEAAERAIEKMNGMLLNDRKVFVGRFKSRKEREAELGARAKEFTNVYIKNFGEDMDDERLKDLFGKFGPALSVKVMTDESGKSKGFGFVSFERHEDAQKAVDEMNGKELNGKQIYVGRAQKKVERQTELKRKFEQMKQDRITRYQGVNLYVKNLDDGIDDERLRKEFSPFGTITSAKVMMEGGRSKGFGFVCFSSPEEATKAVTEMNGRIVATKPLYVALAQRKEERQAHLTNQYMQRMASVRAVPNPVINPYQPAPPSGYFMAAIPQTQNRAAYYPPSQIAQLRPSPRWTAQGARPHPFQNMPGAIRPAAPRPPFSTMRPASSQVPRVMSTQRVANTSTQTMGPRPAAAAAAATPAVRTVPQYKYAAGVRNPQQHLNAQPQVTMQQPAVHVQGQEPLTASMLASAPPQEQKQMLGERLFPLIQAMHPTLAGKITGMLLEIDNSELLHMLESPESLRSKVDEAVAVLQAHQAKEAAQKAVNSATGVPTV
T3 sequence (P51452 whole entry): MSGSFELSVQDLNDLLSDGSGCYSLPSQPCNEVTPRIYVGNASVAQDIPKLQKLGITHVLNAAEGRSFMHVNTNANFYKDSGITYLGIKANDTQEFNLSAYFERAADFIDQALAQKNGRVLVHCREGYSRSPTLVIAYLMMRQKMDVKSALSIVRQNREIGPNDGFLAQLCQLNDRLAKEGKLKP
Sequence of Glucose-6-phosphate 1-dehydrogenase (P11413 whole entry): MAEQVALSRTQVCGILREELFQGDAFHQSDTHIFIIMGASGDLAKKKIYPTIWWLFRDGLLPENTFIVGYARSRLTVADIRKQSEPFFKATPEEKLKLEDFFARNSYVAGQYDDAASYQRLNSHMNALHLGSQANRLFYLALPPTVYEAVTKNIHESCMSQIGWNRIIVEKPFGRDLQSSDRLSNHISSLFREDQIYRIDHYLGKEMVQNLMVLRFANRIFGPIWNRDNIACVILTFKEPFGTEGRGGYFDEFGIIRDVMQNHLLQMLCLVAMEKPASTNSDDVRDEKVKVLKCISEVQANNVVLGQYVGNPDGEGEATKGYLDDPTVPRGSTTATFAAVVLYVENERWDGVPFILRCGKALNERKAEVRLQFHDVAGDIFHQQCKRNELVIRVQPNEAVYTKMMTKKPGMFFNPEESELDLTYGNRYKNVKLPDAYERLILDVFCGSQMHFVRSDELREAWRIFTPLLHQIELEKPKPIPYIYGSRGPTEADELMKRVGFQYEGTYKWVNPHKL
T2 sequence (P08684 whole entry): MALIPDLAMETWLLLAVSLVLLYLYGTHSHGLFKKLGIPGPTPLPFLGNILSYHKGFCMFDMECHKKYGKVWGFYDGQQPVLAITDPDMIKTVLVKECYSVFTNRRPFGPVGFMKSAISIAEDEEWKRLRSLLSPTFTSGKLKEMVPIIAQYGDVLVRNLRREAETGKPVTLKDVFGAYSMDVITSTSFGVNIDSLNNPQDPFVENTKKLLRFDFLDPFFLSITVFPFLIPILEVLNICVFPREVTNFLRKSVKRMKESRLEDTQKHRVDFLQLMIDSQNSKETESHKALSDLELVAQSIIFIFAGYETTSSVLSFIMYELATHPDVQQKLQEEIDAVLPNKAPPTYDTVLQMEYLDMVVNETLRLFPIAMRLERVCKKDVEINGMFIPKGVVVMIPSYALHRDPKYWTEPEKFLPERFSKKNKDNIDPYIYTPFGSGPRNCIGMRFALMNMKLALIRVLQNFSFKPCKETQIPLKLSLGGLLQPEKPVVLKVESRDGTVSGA
Sequence of Induced myeloid leukemia cell differentiation protein Mcl-1 (Q07820 whole entry): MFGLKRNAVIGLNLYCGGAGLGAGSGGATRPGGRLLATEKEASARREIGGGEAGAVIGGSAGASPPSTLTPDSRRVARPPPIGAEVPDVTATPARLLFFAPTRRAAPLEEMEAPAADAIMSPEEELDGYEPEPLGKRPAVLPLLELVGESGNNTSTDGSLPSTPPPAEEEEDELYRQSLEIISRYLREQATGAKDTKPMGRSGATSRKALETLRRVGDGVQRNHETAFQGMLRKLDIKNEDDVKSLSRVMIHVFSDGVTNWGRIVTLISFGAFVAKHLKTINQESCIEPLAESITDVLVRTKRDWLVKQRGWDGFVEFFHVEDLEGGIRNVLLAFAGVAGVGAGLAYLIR
T8 sequence (P02675 whole entry, the tested form may be a part): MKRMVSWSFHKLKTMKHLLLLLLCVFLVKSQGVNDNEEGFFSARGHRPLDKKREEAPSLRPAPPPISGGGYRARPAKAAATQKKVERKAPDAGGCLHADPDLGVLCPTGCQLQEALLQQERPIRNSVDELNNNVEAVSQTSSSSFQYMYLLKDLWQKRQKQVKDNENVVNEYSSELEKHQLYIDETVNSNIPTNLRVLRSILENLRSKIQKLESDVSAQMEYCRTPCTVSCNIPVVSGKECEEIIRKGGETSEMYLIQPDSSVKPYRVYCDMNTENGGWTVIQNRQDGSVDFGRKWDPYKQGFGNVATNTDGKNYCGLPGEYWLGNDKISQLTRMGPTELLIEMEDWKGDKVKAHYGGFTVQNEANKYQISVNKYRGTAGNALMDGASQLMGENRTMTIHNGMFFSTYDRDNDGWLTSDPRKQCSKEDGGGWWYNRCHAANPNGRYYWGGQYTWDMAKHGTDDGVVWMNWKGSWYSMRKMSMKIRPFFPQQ
T7 sequence (P24822 whole entry, the tested form may be a part): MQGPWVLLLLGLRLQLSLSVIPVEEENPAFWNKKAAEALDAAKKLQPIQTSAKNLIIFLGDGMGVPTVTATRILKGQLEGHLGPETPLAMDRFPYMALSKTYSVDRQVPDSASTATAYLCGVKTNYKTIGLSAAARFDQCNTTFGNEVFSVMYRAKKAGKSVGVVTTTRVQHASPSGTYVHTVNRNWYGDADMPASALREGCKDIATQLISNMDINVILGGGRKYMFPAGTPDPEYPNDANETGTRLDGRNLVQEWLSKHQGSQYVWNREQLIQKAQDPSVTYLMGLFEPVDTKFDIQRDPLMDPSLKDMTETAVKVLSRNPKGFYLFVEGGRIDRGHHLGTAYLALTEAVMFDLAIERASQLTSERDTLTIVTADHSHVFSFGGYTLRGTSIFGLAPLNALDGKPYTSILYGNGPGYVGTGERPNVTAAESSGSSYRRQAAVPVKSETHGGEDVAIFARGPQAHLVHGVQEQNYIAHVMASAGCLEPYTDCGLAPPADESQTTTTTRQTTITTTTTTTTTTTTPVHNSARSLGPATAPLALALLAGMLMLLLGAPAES
Sequence of G-protein coupled receptor 55 (Q9Y2T6 whole entry): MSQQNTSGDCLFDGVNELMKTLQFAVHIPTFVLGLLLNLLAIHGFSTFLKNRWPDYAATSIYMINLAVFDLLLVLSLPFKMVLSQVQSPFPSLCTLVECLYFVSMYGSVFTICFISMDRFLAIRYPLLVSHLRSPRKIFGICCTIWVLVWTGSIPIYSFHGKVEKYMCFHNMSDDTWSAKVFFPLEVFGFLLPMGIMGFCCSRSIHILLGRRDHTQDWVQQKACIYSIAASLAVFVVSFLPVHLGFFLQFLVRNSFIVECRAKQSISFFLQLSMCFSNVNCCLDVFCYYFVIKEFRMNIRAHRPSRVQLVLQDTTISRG

For `Cc1cc(NNC(=O)Nc2cccc(Cl)c2)nc2c1c(C)nn2C`, the IC50 [1] was > 80 µM (inactive) and the IC50 (Jurkat) was 46.2 µM (inactive).

With `Cc1cc(O)c(-c2cc(O)c(C)cc2O)cc1O` the EC50 [2] was 4.13 µM (active), the IC50 [3] was > 66 µM (inactive) and the AC50 (Cytochrome P450 2D6) was “inconclusive”. For the same compound, the IC50 [4] was > 66 µM (inactive), the IC50 (Beta-galactosidase) was > 66.6 µM (inactive) and the IC50 [5] was 11.1 µM (active). The AC50 (Cytochrome P450 3A4 [6]) was 1.58 µM (inconclusive), the IC50 (Genome polyprotein) was 39.8 µM (active) and the EC50 [7] was 2.37 µM (active).

In the case of `Clc1ccc(N2N=C(c3cccs3)CC2c2ccco2)cc1` (stereo unspecified), the EC50 [8] is reported as 5.98 µM (active), the EC50 [9] is reported as 2.71 µM (active) and the EC50 [10] is reported as 9.2 µM (active).

In the case of `O=C(Nc1ccc(N2CCOCC2)cc1)Nc1ccc2nc(-c3ccco3)c(-c3ccco3)nc2c1`, the IC50 [11] is reported as 3.55 µM (active), the IC50 [12] is reported as 1.91 µM (active) and the IC50 [13] is reported as 0.894 µM (active).

In the case of `COc1cc(NC(=O)c2ccc([N+](=O)[O-])o2)ccc1NC(=O)c1ccco1`, the AC50 (Paired box protein Pax-8) is reported as 3.75 µM (active), the IC50 [14] is reported as > 119 µM (inactive) and the IC50 (Exodeoxyribonuclease V) is reported as > 119 µM (inactive).

With `CCOc1ccc(CSC(CC(=O)O)C(=O)O)cc1` (stereo unspecified) the AC50 (Cytochrome P450 2C19) was 14.1 µM (inconclusive), the AC50 (Cytochrome P450 3A4 [15]) was “inconclusive” and the AC50 (Cytochrome P450 2C9) was 15.8 µM (inconclusive).

With `CN(C)C(=O)c1cn(CCOc2ccccc2)c2ccccc12` the IC50 [16] was > 100 µM (inactive), the IC50 [17] was > 100 µM (inactive) and the IC50 [18] was > 100 µM (inactive). For the same compound, the IC50 [19] was > 100 µM (inactive).

With `COc1ccc(Cn2c(SCC(=O)Nc3ccc(C)c(C)c3)nc3ccsc3c2=O)cc1` the IC50 [20] was > 32 µM (inactive).

With `O=C(CCCCC(=O)NNC(=O)COc1ccccc1)NNC(=O)COc1ccccc1` the EC50 [21] was 9.87 µM (active), the EC50 [22] was 10 µM (active) and the EC50 [23] was 8.19 µM (active). For the same compound, the EC50 [24] was > 100 µM (inactive).

In the case of `Oc1cc2c(cc1O)C1c3ccc(O)c(O)c3OCC1(O)C2` (stereo unspecified) [HAEMATOXYLIN], the IC50 (Fibrinogen beta chain [25]) is reported as > 83.3 µM (inactive), the AC50 [26] is reported as 17.5 µM (active) and the IC50 (Fibrinogen beta chain [27]) is reported as 9.33 µM (active). For the same compound, the EC50 [28] was 85.7 µM (active), the EC50 [29] was 50 µM (active) and the IC50 [5] was 66.5 µM (inactive). The EC50 [30] was 30.1 µM (inactive), the IC50 (Genome polyprotein) was 17.4 µM (active) and the EC50 [31] was 62.1 µM (active). The IC50 (Major prion protein) was 14 µM (inactive), the IC50 (cells) was > 138 µM (inactive) and the IC50 (Large T antigen) was 4.66 µM (active). For the same compound, the EC50 [32] was 72.8 µM (inactive) and the IC50 [13] was 3.44 µM (active).
